One data set has as its system mouse. The conditions noted are these: administered chronically; cited from earlier work.
For another data set, the system named is humans. Particulars: cited from earlier work.
Data set [1] deals with rat. The conditions noted are these: cited from earlier work.
The test system of data set [2] is amyloid precursor protein transgenic mice. Particulars: after acute sleep restriction; cited from earlier work.
The subject of data set [3] is rat. Particulars: cited from earlier work. This is another data set of the same source.
For data set [4], the system named is rats. Particulars: fasted hungry rats exposed to food odors; cited from earlier work.
The test system of data set [5] is rats. Particulars: rats treated with the compound; cited from earlier work.
Data set [6] deals with rat. Particulars: cited from earlier work. This is another data set of the same source.
For data set [7], the system named is rats. Particulars: cited from earlier work.
Data set [8] can be described thus: Measurement of brain and systemic concentration after oral administration. It counts as in vivo. The conditions noted are these: 3 h after oral administration (100 mg/kg), male wistar rats, n=3. How it is done: Measurement of Brain and Systemic Concentration after Oral Administration:
In order to assess brain penetration, the concentration of the compound is measured in plasma ([P]), and brain ([B]), sampled 3 h (or at different time points) following oral administration (e.g. 100 mg/kg) to male wistar rats. The compounds are formulated e.g. in 100% PEG 400. Samples are collected in the same animal at the same time point (+/−5 min).
Blood is sampled from the vena cava caudalis into containers with EDTA as anticoagulant and centrifuged to yield plasma. Brain is sampled after cardiac perfusion of 10 mL NaCl 0.9% and homogenized into one volume of cold phosphate buffer (pH 7.4). All samples are extracted with MeOH and analyzed by LC-MS/MS. Concentrations are determined with the help of calibration curves.

The target in another data set is human orexin-2 receptor (Homo sapiens (Human), UniProt O43614). Briefly: In vitro assay: intracellular calcium measurements (FLIPR), antagonistic activity. It counts as cell-based. The conditions noted are these: CHO cells expressing human orexin-2 receptor, orexin-A agonist, geometric mean, read-out: IC50 Ox2. The procedure, abridged:
(§1)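 In this FLIPR calcium assay, antagonists were given 120 min on CHO cells with human OX1 or OX2 receptor before orexin-A (3 nM final) was added. Peak fluorescence was measured at 1 s intervals against the uninhibited agonist peak, and IC50s were averaged geometrically.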

The target of another data set is human orexin-1 receptor (Homo sapiens (Human), UniProt O43613). The data set is described as above. It counts as cell-based. Particulars: CHO cells expressing human orexin-1 receptor, orexin-A agonist, geometric mean, read-out: IC50 Ox1. The method, boiled down: as §1
human orexin-1 receptor, sequence (O43613 whole entry): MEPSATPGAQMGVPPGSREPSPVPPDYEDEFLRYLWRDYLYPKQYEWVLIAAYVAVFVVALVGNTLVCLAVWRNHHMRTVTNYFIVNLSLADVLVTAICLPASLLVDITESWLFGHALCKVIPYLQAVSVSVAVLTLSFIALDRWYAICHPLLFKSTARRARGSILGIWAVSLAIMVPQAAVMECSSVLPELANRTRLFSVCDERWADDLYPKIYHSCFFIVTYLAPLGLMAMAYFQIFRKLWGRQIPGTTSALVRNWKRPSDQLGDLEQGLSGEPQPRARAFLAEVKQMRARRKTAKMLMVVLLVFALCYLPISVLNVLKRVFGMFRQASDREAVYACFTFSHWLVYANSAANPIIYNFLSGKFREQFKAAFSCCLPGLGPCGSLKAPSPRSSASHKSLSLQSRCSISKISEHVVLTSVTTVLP
For a further data set, the system named is Wistar rats. Briefly: Sedative effects: EEG, EMG and behavioural indices of alertness recorded by radiotelemetry in vivo. Particulars: 30 mg/kg po; effects analyzed over 6 hours; compared to vehicle controls. The method, then:
Sedative Effects: EEG, EMG and Behavioural Indices of Alertness Recorded by Radiotelemetry In Vivo in Wistar Rats.
Electroencephalography (EEG) and Electromyography (EMG) signals were measured by telemetry using TL11M2-F20-EET miniature radiotelemetric implants (Data Science Int.) with two pairs of differential leads.
Surgical implantation was performed under general anesthesia with Ketamin/Xylazin, for cranial placement of one differential pair of EEG electrodes and one pair of EMG leads inserted in either side of the muscles of the neck. After surgery, rats recovered in a thermoregulated chamber and received analgesic treatment with subcutaneous buprenorphine twice a day for 2 d. They were then housed individually and allowed to recover for a minimum of 2 weeks. Thereafter, rats—in their home cage—were placed in a ventilated sound-attenuating box, on a 12-h light/12-h dark cycle, for acclimatization before continuous EEG/EMG recordings started. The telemetric technology that we used in this study allows accurate and stress-free acquisition of biosignals in rats placed in their familiar home cage environment, with no recording leads restricting their movements. Variables analyzed included four different stages of vigilance and sleep, spontaneous activity in the home cage and body temperature. Sleep and wake stages were evaluated using a rodent scoring software (Somnologica Science) directly processing electrical biosignals on 10 s contiguous epochs. The scoring is based on frequency estimation for EEG and amplitude discrimination for EMG and locomotor activity. Using these measurements, the software determines the probability that all components within each epoch best represent active waking (AW), quiet waking (QW), non-REM-sleep (NREM) or REM-sleep (REM). The percentage of total time spent in AW, QW, NREM- and REM-sleep was calculated per 12 h light or dark period. The latency to the onset of the first significant NREM- and REM-sleep episodes and the frequency and duration of those episodes were also calculated. AW, QW, NREM- and REM-sleep, home cage activity and body temperature were measured at baseline for at least one total circadian cycle (12 h-night, 12 h-day) before a test compound was administered. […] All variables were subsequently recorded for 12 h following administration of the orexin receptor antagonist.

Data set [9] has as its system rodents. Particulars: cited from earlier work.
Data set [10] deals with rodents. The conditions noted are these: repeated amphetamine administration; cited from earlier work.

human orexin-2 receptor, sequence (O43614 whole entry): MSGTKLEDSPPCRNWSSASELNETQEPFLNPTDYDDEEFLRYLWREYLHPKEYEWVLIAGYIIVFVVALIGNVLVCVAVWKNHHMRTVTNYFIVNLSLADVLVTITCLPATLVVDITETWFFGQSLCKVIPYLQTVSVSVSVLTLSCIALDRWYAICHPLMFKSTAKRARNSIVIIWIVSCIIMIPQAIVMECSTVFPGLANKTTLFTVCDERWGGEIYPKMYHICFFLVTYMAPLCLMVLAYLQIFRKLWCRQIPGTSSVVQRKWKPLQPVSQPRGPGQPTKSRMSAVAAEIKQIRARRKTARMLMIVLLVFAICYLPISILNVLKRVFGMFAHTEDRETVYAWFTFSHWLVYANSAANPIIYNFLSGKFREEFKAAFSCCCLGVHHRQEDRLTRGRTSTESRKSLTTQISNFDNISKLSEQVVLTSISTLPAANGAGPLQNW

On to `CNC(=O)[C@@H](c1ccccc1)N1CCc2cc(OC)c(OC)cc2[C@@H]1CCc1ccc(C(F)(F)F)cc1` [(2R)-2-{(1S)-6,7-dimethoxy-1-[2-(4-trifluoromethyl-phenyl)-ethyl]-3,4-dihydro-1H-isoquinolin-2-yl}-N-methyl-2-phenyl-acetamide], for which the antidepressant-like activity result with mouse is on record as “induce antidepressant-like activity”. The “clinical efficacy in primary insomnia” value in the data set with humans was “showed clinical efficacy”. In the data set on rat [1], the “activity in fear-potentiated startle paradigm” value is “active”. The “brain levels of amyloid-beta and Aβ plaque deposition” value in data set [2] is on record as “decreased”. In the data set on rat [3], the “pharmacological activity in nicotine self-administration” value is reported as “displayed pharmacological activity”. For the same compound, in the data set on rats [4], the “natural activation induced by orexin A” value was “attenuate”. Moreover, in the data set with rats [5], the learning and memory result was “intact declarative and non-declarative learning and memory”. Further, in the data set with rat [6], the “alertness (active wake and locomotion)” value is recorded as “decrease alertness”; the “time spent in both REM and NREM sleep” value is given as “dose-dependently increase”. Moreover, the “cardiovascular responses to conditioned fear and novelty exposure” value with rats [7] is given as “attenuated”.

Take `Cc1ccc(-n2nccn2)c(C(=O)N2CCC[C@@]2(C)c2nc3cc(Br)cc(C)c3[nH]2)c1` [Example 5.19]: in [8], the “concentration of the compound in brain [B]” value (“concentration … [B]” below) is 3880 ng/g and the “concentration of the compound in plasma [P]” value (“concentration … [P]” for short) came out at 2095 ng/mL. Further, the IC50 at human orexin-2 receptor turned out to be 20 nM. On human orexin-1 receptor, the IC50 amounted to 9 nM. Besides, in the data set with Wistar rats, the “effect on NREM sleep” value is reported as “+31%”, the “effect on REM sleep” value is “+69%”, the “effect on active wake” value is −28% and the “effect on home cage activity” value is recorded as −46%.

Consider `COc1ccc(-n2nccn2)c(C(=O)N2CCC[C@@]2(C)c2nc3c(C)c(Cl)ccc3[nH]2)c1` [Example 5.36], for which, in [8], the “concentration … [B]” value worked out at 1808 ng/g and the “concentration … [P]” value came to 1280 ng/mL. Besides, in the data set with Wistar rats, the “effect on NREM sleep” value was “+27%”, the “effect on REM sleep” value is “+53%”, the “effect on active wake” value is −24% and the “effect on home cage activity” value was −31%.

`Cc1ccc(-c2ncccn2)c(C(=O)N2CCC[C@@]2(C)c2nc3cc(Br)cc(C)c3[nH]2)c1` [Example 5.277]: in data set [8], the “concentration … [B]” value worked out at 5880 ng/g and the “concentration … [P]” value was found to be 3560 ng/mL. Further, the IC50 at human orexin-2 receptor was 21 nM. Moreover, at human orexin-1 receptor, the IC50 is 6 nM. Moreover, in the data set on Wistar rats, the “effect on NREM sleep” value was “+21%”, the “effect on REM sleep” value was “+52%”, the “effect on active wake” value is −22% and the “effect on home cage activity” value was −42%.

Turning to `Cn1c(SCC(=O)N2CCC[C@H]2C(=O)Nc2ccccc2-c2ccccc2)nc2ccccc21` [N-biphenyl-2-yl-1-{[(1-methyl-1H-benzimidazol-2-yl)sulfanyl]acetyl}-L-prolinamide], the “nicotine-reinstatement for a conditioned reinforcer” value with rodents [9] is listed as “inhibited”. Besides, the “behavioral (locomotor sensitization) and molecular (transcriptional responses) changes” value with rodents [10] was “reduced”.

With “(S)-(2-(6-methoxy-1H-benzo[d]imidazol-2-yl)pyrrolidin-1-yl)(5-methyl-2-(2H-1,2,3-triazol-2-yl)phenyl)methanone [Example 1.1]”, the results for the IC50 at human orexin-2 receptor and on human orexin-1 receptor were 108 nM and 1500 nM, respectively.

The record behind these values is patent US9732075B2, “Benzimidazole-proline derivatives” (IDORSIA PHARMACEUTICALS LTD, priority 2012, dated 2017).
